Results on 14 compounds are retold here after PubChem BioAssay (NCI).

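Values below derive from 48-hour exposures of cells grown in 96-well plates, with endpoints linearly interpolated between the two concentrations bracketing the appropriate inhibition level. The concentration for 50% growth inhibition is given as GI50. TGI denotes the concentration required for complete inhibition of growth.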 Where a SMILES comes first, the peptide text is derived from it. Bridges are numbered along the chain shown (N, C = ends). [ ]: non-standard residue; d: D form. The star is where a group is joined. ξ: configuration not given here. Cbz = O=C(OCc1ccccc1)*; ξD = NC(CC(=O)O)C(=O)O; Ac3c = NC1(C(=O)O)CC1; Boc = CC(C)(C)OC(=O)*; OtBu = CC(C)(C)O*

Some test systems named below: CCRF-CEM leukemia; HCC-2998 colon; LOX IMVI melanoma; MALME-3M melanoma; NCI-H226 lung; OVCAR-3 ovarian; PC-3 prostate; RXF 393 renal; SF-295 CNS; SN12C renal.
Common to all, as to assay: DTP human tumour cell line panel, 48 h

Broadly, the TGI is the concentration giving total growth inhibition. Low readings indicate more potent growth arrest, high ones less potent growth arrest. Consider `O=S1(=O)C(c2ccccc2)=C(O)c2ccccc21`, for which the TGI in the test on CCRF-CEM leukemia, in the test on HCC-2998 colon, in the test on LOX IMVI melanoma, in the test with MALME-3M melanoma, with NCI-H226 lung and in the test on OVCAR-3 ovarian was > 100 µM in each case. Besides, the concentration for total growth inhibition (TGI) in the test on PC-3 prostate, in the test on RXF 393 renal and in the test on SF-295 CNS was > 100 µM throughout.
With `Cc1ccc(N=C2SC(c3ccc(C)cc3)(c3ccc(C)cc3)c3ccccc32)cc1`, the TGI in the test with CCRF-CEM leukemia, in the test with HCC-2998 colon, with LOX IMVI melanoma, in the test with MALME-3M melanoma, with NCI-H226 lung and in the test with OVCAR-3 ovarian was > 100 µM throughout. In addition, the TGI in the test on PC-3 prostate, in the test with RXF 393 renal, in the test with SF-295 CNS and in the test with SN12C renal was > 100 µM in each case.
Consider `CC(NNC(=O)c1ccncc1)c1ccc(Cl)c(Cl)c1` (stereo not drawn), for which the total growth inhibition concentration (TGI) with CCRF-CEM leukemia, with HCC-2998 colon, with LOX IMVI melanoma, in the test with MALME-3M melanoma, in the test on NCI-H226 lung and with OVCAR-3 ovarian was > 100 µM each time. Moreover, the TGI in the test on PC-3 prostate, in the test with RXF 393 renal, with SF-295 CNS and in the test with SN12C renal was > 100 µM each time.
For the compound `COC(=O)C1(NC(=O)C(CC(=O)OC(C)(C)C)NC(=O)OC(C)(C)C)CC1` (stereo not drawn) (Boc-[ξD](OtBu)-[Ac3c]-OMe), the concentration for total growth inhibition (TGI) with CCRF-CEM leukemia, in the test on HCC-2998 colon, with LOX IMVI melanoma, in the test on MALME-3M melanoma, with NCI-H226 lung and in the test with OVCAR-3 ovarian was > 100 µM throughout. For the same compound, the TGI with PC-3 prostate, in the test with RXF 393 renal, with SF-295 CNS and in the test on SN12C renal was > 100 µM in each case.
For the compound `COC(=O)/C(=C\c1ccco1)P(=O)(OC)OC`, the TGI is 94.2 µM in the test with CCRF-CEM leukemia; > 100 µM in the test with HCC-2998 colon; 71 µM with LOX IMVI melanoma; 59 µM in the test with MALME-3M melanoma; > 100 µM in the test on NCI-H226 lung; 81.6 µM in the test on OVCAR-3 ovarian. Moreover, the concentration for total growth inhibition (TGI) in the test on PC-3 prostate was > 100 µM; in the test on RXF 393 renal, > 100 µM; with SF-295 CNS, 51.4 µM; with SN12C renal, > 100 µM.
`CCCCc1ccc(-n2sc3ncccc3c2=O)cc1`: the concentration for total growth inhibition (TGI) was 33.7 µM with HCC-2998 colon; 43.6 µM in the test with LOX IMVI melanoma; 14.9 µM with MALME-3M melanoma; 64.2 µM in the test with NCI-H226 lung; 42.5 µM with OVCAR-3 ovarian; 25.5 µM with PC-3 prostate. For the same compound, the TGI with SF-295 CNS worked out at 31.2 µM; in the test on SN12C renal it was 37.7 µM.
On to `CC(C)C(C/C=C1/CC(CO)(COC(=O)C2CCCCC2)OC1=O)C(C)C` (stereo not drawn), for which the TGI with CCRF-CEM leukemia came to 63.2 µM; with HCC-2998 colon it was 59.8 µM; in the test on LOX IMVI melanoma it was 29.4 µM; in the test on MALME-3M melanoma it was 42.3 µM; in the test on NCI-H226 lung, 48.6 µM; with OVCAR-3 ovarian it was 34.5 µM. In addition, the TGI in the test with PC-3 prostate was 35.6 µM; in the test on RXF 393 renal it was 40.9 µM; in the test with SF-295 CNS, 29 µM; with SN12C renal, 31.9 µM.
Take `COc1ccc(/C(=N/Nc2nc3ccccc3[nH]2)C(=O)O)cc1`: the TGI with CCRF-CEM leukemia, in the test on HCC-2998 colon, in the test with LOX IMVI melanoma, with MALME-3M melanoma, in the test with NCI-H226 lung and in the test with OVCAR-3 ovarian was > 100 µM in each case. Moreover, the TGI with PC-3 prostate, in the test with SF-295 CNS and in the test with SN12C renal was > 100 µM in each case.
As to `CCOC(=O)/C(C#N)=C(/NNc1ccccc1)c1ccncc1C(=O)O`, the TGI with CCRF-CEM leukemia was > 100 µM; with HCC-2998 colon, > 95.6 µM; with LOX IMVI melanoma, > 100 µM; in the test with MALME-3M melanoma, > 100 µM; with NCI-H226 lung, > 100 µM; in the test on OVCAR-3 ovarian it was > 100 µM. Also, the concentration for total growth inhibition (TGI) in the test on PC-3 prostate, in the test with RXF 393 renal, in the test on SF-295 CNS and in the test with SN12C renal was > 100 µM in each case.
As to `COC(=O)C1CCCCNC(=O)CCC(NC(=O)OCc2ccccc2)C(=O)N1` (stereo not drawn) (Cbz-Glu-Lys-OMe; lactam 1-2; configuration not given here), the TGI with CCRF-CEM leukemia, in the test with LOX IMVI melanoma, in the test with MALME-3M melanoma, with NCI-H226 lung, with OVCAR-3 ovarian and in the test with PC-3 prostate was > 100 µM throughout. Further, the TGI in the test with RXF 393 renal, in the test on SF-295 CNS and in the test with SN12C renal was > 100 µM in each case.
Broadly, the GI50 is the concentration giving 50% growth inhibition. As for `Nc1ccc(-c2nc3ccc(F)cc3s2)cc1`, the concentration for total growth inhibition (TGI) was > 100 µM in the test on CCRF-CEM leukemia; 45.3 µM in the test with HCC-2998 colon; > 100 µM in the test on LOX IMVI melanoma; > 100 µM with MALME-3M melanoma; > 100 µM in the test on NCI-H226 lung; 64.4 µM with OVCAR-3 ovarian. In addition, the TGI with PC-3 prostate is 92.6 µM; with SF-295 CNS, 60.7 µM; in the test on SN12C renal, > 100 µM. The GI50 in the test with HCC-2998 colon was 17.8 µM; with NCI-H226 lung it was 47 µM.
`Cc1nn(C)c2nc3ccc(Cl)cc3c(-c3ccccc3)c12`: the total growth inhibition concentration (TGI) in the test with CCRF-CEM leukemia, in the test with HCC-2998 colon, in the test with MALME-3M melanoma, in the test on NCI-H226 lung, in the test with OVCAR-3 ovarian and with PC-3 prostate was > 100 µM each time. Further, the concentration for total growth inhibition (TGI) in the test with RXF 393 renal, in the test on SF-295 CNS and in the test on SN12C renal was > 100 µM each time.
For `CCn1c2ccc(O)c(C(=O)OC)c2c2cc3ccccc3c(O)c21`, the total growth inhibition concentration (TGI) in the test on CCRF-CEM leukemia stood at 70 µM; with HCC-2998 colon it was 38.3 µM; in the test with MALME-3M melanoma, 20.7 µM; in the test with NCI-H226 lung, 83.8 µM; in the test with OVCAR-3 ovarian it was 47.3 µM; in the test with PC-3 prostate, 78.8 µM. In addition, the values for the TGI in the test on RXF 393 renal, in the test with SF-295 CNS and in the test with SN12C renal were > 100 µM, 64.5 µM and 41.6 µM, respectively.
Consider `Oc1nc(N/N=C/c2ccccc2)[nH]c1/C=C1\C=Nc2ccccc21`, for which the TGI with CCRF-CEM leukemia was 74.3 µM; in the test on LOX IMVI melanoma it was > 100 µM; in the test with MALME-3M melanoma, > 100 µM; in the test with NCI-H226 lung it was > 100 µM; in the test on OVCAR-3 ovarian, > 100 µM; in the test with PC-3 prostate, > 100 µM. The TGI in the test with RXF 393 renal, with SF-295 CNS and in the test on SN12C renal was > 100 µM each time.
